The subject of data set [1] is Artemia. Briefly: Toxicity against brine shrimp larvae. Type of data set: organism-based. Particulars: in vivo.
Data set [2] relates to Human alphaherpesvirus 1. Put plainly: Antiviral activity against HSV1. Type of data set: functional, organism-based.
Data set [3] relates to Human alphaherpesvirus 2. Briefly: Antiviral activity against HSV2. Type of data set: functional, organism-based.
Data set [4] concerns Enterovirus C. Briefly: Antiviral activity against Poliovirus. Type of data set: functional, organism-based.

≈ marks a conversion by molar mass, not a printed value.

In data set [1], `Cc1ccc(O)cc1CC[C@@H]1[C@H](O)CC[C@]2(C)[C@@H]([C@H](C)CCCC(C)C)CC[C@@H]12` [ASTROGORGIADIOL] yielded an LD50 above 100 ppm.
Take `Cc1ccc(O)cc1CC[C@@H]1C(=O)CC[C@]2(C)[C@@H]([C@H](C)/C=C/CC(C)C)CC[C@@H]12` [CALICOFEROL A]: in data set [1], the LD50 was 1.8 ppm.
Still for that read-out and setting: to `Cc1ccc(O)cc1CC[C@@H]1[C@H](O)CC[C@]2(C)[C@@H]([C@H](C)CCCC(C)C)[C@@H](O)C[C@@H]12` [CALICOFEROL B] belongs 2.3 ppm; to `C=C(CC[C@@H](C)[C@H]1CC[C@H]2[C@H](CCc3cc(O)ccc3C)[C@H](O)CC[C@]12C)C(C)C` [CALICOFEROL C], above 100 ppm.
Broadly, the EC50 is the concentration needed to bring the measured effect to its halfway point. Higher therefore signals weaker potency. For `Cc1ccc(O)cc1CC[C@@H]1C(=O)CC[C@]2(C)[C@@H]([C@H](C)/C=C/C(C)C(C)C)CC[C@@H]12` (some centres undefined) [CALICOFEROL D], the values for the EC50 in data set [2], in data set [3] and in data set [4] were 1.2 µg/mL (≈ 2.92 µM), 1.2 µg/mL (≈ 2.92 µM) and 0.4 µg/mL (≈ 0.974 µM), respectively. The same molecule yielded an LD50 in data set [1] of 37 ppm.
Molecule `Cc1ccc(O)cc1CC[C@@H]1C(=O)CC[C@]2(C)[C@@H]([C@H](C)CCCC(C)C)CC[C@@H]12` [CALICOFEROL E] returned an LD50 in data set [1] above 100 ppm.

The values are drawn from ChEMBL document CHEMBL1159286, “New secosteroids from an undescribed gorgonian of the genus Muricella” (J Nat Prod, 1995).
